Converted amounts (≈) assume the structure as drawn.
Tests used:
Test in all cases: MIC, agar dilution
Assay type in all cases: cell-based
[1] = system: S. aureus ATCC 29213 (Sensitive); conditions: S. aureus ATCC 29213 (Sensitive)
[2] = system: S. aureus IVES 1983 (meth. resistant); conditions: S. aureus IVES 1983 (meth. resistant)
[3] = system: S. aureus Smith (Sensitive); conditions: S. aureus Smith (Sensitive)
[4] = system: E. coli UBMS 89-1 (tetM); conditions: E. coli UBMS 89-1 (tetM)
[5] = system: E. coli UBMS 88-1 (tetB); conditions: E. coli UBMS 88-1 (tetB)
[6] = system: S. aureus UBMS 88-4 (Sensitive); conditions: S. aureus UBMS 88-4 (Sensitive)
[7] = system: S. aureus UBMS 88-7 (tetK); conditions: S. aureus UBMS 88-7 (tetK)
[8] = system: S. haemolyticus AVAH 88-3; conditions: S. haemolyticus AVAH 88-3
[9] = system: S. aureus UBMS 90-2 (tetM); conditions: S. aureus UBMS 90-2 (tetM)
[10] = system: E. coli ATCC 25922; conditions: E. coli ATCC 25922
[11] = system: S. aureus UBMS 88-5 (tetM); conditions: S. aureus UBMS 88-5 (tetM)
[12] = system: E. faecalis 12201; conditions: E. faecalis 12201
[13] = system: E. coli UBMS 89-2 (Sensitive); conditions: E. coli UBMS 89-2 (Sensitive)
[14] = system: S. aureus UBMS 90-1 (tetM); conditions: S. aureus UBMS 90-1 (tetM)
[15] = system: S. aureus IVES 2943 (meth. resistant); conditions: S. aureus IVES 2943 (meth. resistant)
[16] = system: E. faecalis ATCC 29212; conditions: E. faecalis ATCC 29212
[17] = system: E. coli UBMS 88-2 (Sensitive); conditions: E. coli UBMS 88-2 (Sensitive)
[18] = system: S. aureus UBMS 90-3 (Sensitive); conditions: S. aureus UBMS 90-3 (Sensitive)

Compound	MIC [1]	MIC [2] [µg/mL]	MIC [3] [µg/mL]	MIC [4] [µg/mL]	MIC [5] [µg/mL]	MIC [6] [µg/mL]	MIC [7] [µg/mL]	MIC [8] [µg/mL]	MIC [9] [µg/mL]	MIC [10]	MIC [11] [µg/mL]	MIC [12] [µg/mL]	MIC [13]	MIC [14] [µg/mL]	MIC [15] [µg/mL]	MIC [16] [µg/mL]	MIC [17] [µg/mL]	MIC [18] [µg/mL]
CN(C)c1cc(N(C)C)c2c(c1O)C(=O)C1=C(O)C3(O)C(=O)C(C(N)=O)=C(O)C(N(C)C)C3CC1C2 (stereo not drawn) [C, 7-(Dimethylamino)-9-(dimethylamino)-6-demethyl-6-deoxytetracycline]	≦0.015 μg/ml	1 (≈ 2 µM)	0.03 (≈ 0.0599 µM)	1 (≈ 2 µM)	16 (≈ 32 µM)	0.03 (≈ 0.0599 µM)	0.25 (≈ 0.499 µM)	0.12 (≈ 0.24 µM)	0.12 (≈ 0.24 µM)	0.25 µg/mL (≈ 0.499 µM)	0.12 (≈ 0.24 µM)	0.5 (≈ 0.999 µM)	0.5 µg/mL (≈ 0.999 µM)	0.5 (≈ 0.999 µM)	1 (≈ 2 µM)	0.06 (≈ 0.12 µM)	0.25 (≈ 0.499 µM)	0.03 (≈ 0.0599 µM)
CN(C)c1cc(NC(=O)c2cccc(C(F)(F)F)c2)c(O)c2c1CC1CC3C(N(C)C)C(O)=C(C(N)=O)C(=O)C3(O)C(O)=C1C2=O (stereo not drawn) [U, 7-(Dimethylamino)-9-[[3-(trifluoromethyl)benzoyl)amino]-6-demethyl-6-deoxytetracycline]	0.5 µg/mL (≈ 0.776 µM)	1 (≈ 1.55 µM)	1 (≈ 1.55 µM)	>32	>32	0.5 (≈ 0.776 µM)	1 (≈ 1.55 µM)	1 (≈ 1.55 µM)	1 (≈ 1.55 µM)	≧32 μg/ml	1 (≈ 1.55 µM)	1 (≈ 1.55 µM)	≧32 μg/ml	1 (≈ 1.55 µM)	1 (≈ 1.55 µM)	1 (≈ 1.55 µM)	>32	0.5 (≈ 0.776 µM)
CN(C)C1C(O)=C(C(N)=O)C(=O)C2(O)C(O)=C3C(=O)c4c(O)c(NC=O)cc(I)c4CC3CC12.O=S(=O)(O)O (stereo not drawn) [G, 9-(Formylamino)-7-iodo-6-demethyl-6-deoxytetracycline sulfate]	–	32	0.03	1	>32	<0.015	16	0.06	0.5	0.5 µg/mL	1	16	1 µg/mL	4	32	0.25	1	0.03
CN(C)c1cc(NC(=O)c2ccco2)c(O)c2c1CC1CC3C(N(C)C)C(O)=C(C(N)=O)C(=O)C3(O)C(O)=C1C2=O (stereo not drawn) [Y, 7-(Dimethylamino)-9-((2-furanylcarbonyl)amino)-6-demethyl-6-deoxytetracycline]	0.5 µg/mL (≈ 0.883 µM)	>32	2 (≈ 3.53 µM)	>32	>32	4 (≈ 7.06 µM)	>32	>32	8 (≈ 14.1 µM)	>32 µg/mL	16 (≈ 28.2 µM)	32 (≈ 56.5 µM)	>32 µg/mL	32 (≈ 56.5 µM)	>32	8 (≈ 14.1 µM)	>32	2 (≈ 3.53 µM)
CN(C)c1cc(NC(=O)c2ccc([N+](=O)[O-])cc2)c(O)c2c1CC1CC3C(N(C)C)C(O)=C(C(N)=O)C(=O)C3(O)C(O)=C1C2=O (stereo not drawn) [V, 7-(Dimethylamino)-9-[(4-nitrobenzoyl)amino]-6-demethyl-6-deoxytetracycline]	0.25 µg/mL (≈ 0.402 µM)	8 (≈ 12.9 µM)	0.5 (≈ 0.804 µM)	>32	>32	2 (≈ 3.22 µM)	4 (≈ 6.43 µM)	4 (≈ 6.43 µM)	1 (≈ 1.61 µM)	>32 µg/mL	2 (≈ 3.22 µM)	4 (≈ 6.43 µM)	>32 µg/mL	2 (≈ 3.22 µM)	4 (≈ 6.43 µM)	4 (≈ 6.43 µM)	>32	0.5 (≈ 0.804 µM)
CN(C)c1cc(NC(=O)c2cccs2)c(O)c2c1CC1CC3C(N(C)C)C(O)=C(C(N)=O)C(=O)C3(O)C(O)=C1C2=O (stereo not drawn) [Z, 7-(Dimethylamino)-9-[(2-thienylcarbonyl)amino]-6-demethyl-6-deoxytetracycline]	0.5 µg/mL (≈ 0.858 µM)	32 (≈ 54.9 µM)	2 (≈ 3.43 µM)	>32	>32	8 (≈ 13.7 µM)	32 (≈ 54.9 µM)	8 (≈ 13.7 µM)	4 (≈ 6.87 µM)	32 µg/mL (≈ 54.9 µM)	8 (≈ 13.7 µM)	8 (≈ 13.7 µM)	>32 µg/mL	4 (≈ 6.87 µM)	32 (≈ 54.9 µM)	8 (≈ 13.7 µM)	>32	2 (≈ 3.43 µM)
CCN(CC)c1cc(NC(C)=O)c(O)c2c1CC1CC3C(N(C)C)C(O)=C(C(N)=O)C(=O)C3(O)C(O)=C1C2=O (stereo not drawn) [F, 9-(Acetylamino)-7-(diethylamino)-6-demethyl-6-deoxytetracycline]	≦0.015 μg/ml	4 (≈ 7.37 µM)	0.12 (≈ 0.221 µM)	4 (≈ 7.37 µM)	>32	0.25 (≈ 0.461 µM)	2 (≈ 3.69 µM)	2 (≈ 3.69 µM)	0.5 (≈ 0.922 µM)	4 µg/mL (≈ 7.37 µM)	0.5 (≈ 0.922 µM)	4 (≈ 7.37 µM)	32 µg/mL (≈ 59 µM)	2 (≈ 3.69 µM)	2 (≈ 3.69 µM)	0.25 (≈ 0.461 µM)	32 (≈ 59 µM)	0.12 (≈ 0.221 µM)
CN(C)c1cc(NC(=O)C(F)(F)F)c(O)c2c1C[C@H]1C[C@H]3[C@H](N(C)C)C(O)=C(C(N)=O)C(=O)[C@@]3(O)C(O)=C1C2=O.O=S(=O)(O)O [I, 7-(Dimethylamino)-9-((trifluoroacetyl)amino]-g-demethyl-6-deoxytetracycline sulfate]	1 µg/mL	32	8	32	>32	8	16	0.5	16	32 µg/mL	16	16	32 µg/mL	16	–	8	32	4
CN(C)c1cc(NC(=O)CO)c(O)c2c1CC1CC3C(N(C)C)C(O)=C(C(N)=O)C(=O)C3(O)C(O)=C1C2=O (stereo not drawn) [L, 7-(Dimethylamino)-9-[(hydroxyacetyl)amino]-6-demethyl-6-deoxytetracycline]	0.5 µg/mL (≈ 0.942 µM)	>32	0.5 (≈ 0.942 µM)	>32	>32	4 (≈ 7.54 µM)	>32	16 (≈ 30.2 µM)	2 (≈ 3.77 µM)	32 µg/mL (≈ 60.3 µM)	4 (≈ 7.54 µM)	4 (≈ 7.54 µM)	>32 µg/mL	8 (≈ 15.1 µM)	>32	2 (≈ 3.77 µM)	>32	1 (≈ 1.88 µM)
CC(=O)Nc1cc(I)c2c(c1O)C(=O)C1=C(O)C3(O)C(=O)C(C(N)=O)=C(O)C(N(C)C)C3CC1C2.O=S(=O)(O)O (stereo not drawn) [H, 9-(Acetylamino)-7-iodo-6-demethyl-6-deoxytetracycline sulfate]	0.22 µg/mL	32	0.12	128	–	0.25	16	2	0.5	16 µg/mL	1	2	16 µg/mL	1	32	0.25	>128	0.12
